The results in this text go back to PubChem BioAssay (NCI).

Assay in all cases: NCI tumour cell line growth inhibition, 48 h
The test system of experiment [1] is IGROV1 ovarian.
The test system of experiment [2] is SF-268 CNS.
In experiment [3] the test system is SK-MEL-2 melanoma.
The test system of experiment [4] is OVCAR-4 ovarian.
Experiment [5] concerns SF-539 CNS.
The subject of experiment [6] is NCI-H23 lung.
Experiment [7] relates to HL-60(TB) leukemia.
For experiment [8], the system named is MDA-MB-435.
In experiment [9] the test system is DU-145 prostate.
The subject of experiment [10] is PC-3 prostate.

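Cultured in 96-well plates, cells were exposed to test compound for 48 hours across five concentrations. GI50: concentration for 50% inhibition of growth. TGI: concentration producing complete growth inhibition.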 Bounds are passed on as bounds.

Consider `Cc1cc(Cl)cc2c1NC(=O)C2(O)CC(=O)c1ccc(F)cc1` (stereo not drawn), for which the TGI in experiment [1] was above 100 µM; in experiment [2], above 100 µM; in [3], above 100 µM; in [4], 98.1 µM; in experiment [5] it was above 100 µM; in experiment [6], above 100 µM.

As to `CN(C)CCC(=O)N1CCc2c([nH]c3ccccc23)C1c1cccnc1` (stereo not drawn), the TGI in experiment [1], in experiment [2], in experiment [7], in [4], in [5] and in experiment [6] was above 100 µM each time.

Regarding `CC1NCCc2c1[nH]c1cc(O)ccc21` (stereo not drawn), the TGI in experiment [1], in [2], in [7], in experiment [3], in [4] and in [5] was above 100 µM in each case. The same molecule registered a TGI in [6] above 100 µM.

In the case of `CCOC(=O)N1CCc2cc(OC)c(OC)cc2/C1=C/c1ccc(OC)c(OC)c1`, the TGI in [1] is above 100 µM; in experiment [2], above 100 µM; in experiment [7] it was 65.1 µM; in [3], above 100 µM; in experiment [5], above 100 µM; in [6], above 100 µM.

In the case of `O=C(Nc1ccccc1[N+](=O)[O-])C(=O)C(C(=O)c1ccccc1-c1ccccc1)C1OC(=O)c2ccccc21` (stereo not drawn), the TGI is 51.3 µM in [1]; 41 µM in [2]; 47.6 µM in experiment [7]; 65.2 µM in [3]; above 100 µM in experiment [4]; 29.2 µM in [5]. In addition, the TGI in [6] amounted to 33.6 µM.

Consider `O=C1[C@@H]2C(c3ccncc3)=NO[C@@H]2C(=O)N1c1ccc(Cc2ccc(N3C(=O)[C@H]4C(c5ccncc5)=NO[C@H]4C3=O)cc2)cc1`, for which the TGI in experiment [1], in [2], in experiment [7], in experiment [3], in [4] and in [5] was above 100 µM each time. The molecule also had a TGI in experiment [6] above 100 µM.

Regarding `O=C(Nc1nc(-c2ccccc2)cs1)c1cc(O)c(O)c(O)c1`, the GI50 in experiment [1] is 3.12 µM; in experiment [8], 5.59 µM; in experiment [2], 2.72 µM; in [9] it was 6.41 µM; in [7], 3.05 µM; in experiment [4] it was 2.22 µM. Further, the GI50 in experiment [5] is 2.77 µM; in [6], 4.36 µM. In addition, the TGI was 22.8 µM in [1]; 56.2 µM in experiment [8]; 31.9 µM in experiment [2]; above 100 µM in experiment [9]; 10.1 µM in experiment [7]; 57.3 µM in experiment [4]. In addition, the TGI in experiment [5] came out at 11.9 µM; in experiment [6] it was 51.5 µM.

Consider `O=C1c2ccccc2C(=O)c2sc(Nc3ccc(Cl)cc3)nc21`, for which the TGI in [1] came out at 6.9 µM; in experiment [8], 2.69 µM; in experiment [2], 5.52 µM; in experiment [7], 1.05 µM; in [3], 8.94 µM; in [4], 4.12 µM. Further, the TGI in experiment [10] is 10.5 µM; in [5], 6.33 µM; in [6] it was 2.81 µM. Besides, the GI50 is 1.29 µM in experiment [8] and 2.49 µM in experiment [10].

Regarding `C/C(CC(=O)Nc1ccccc1)=N\NC(N)=S`, the TGI in experiment [1], in experiment [2], in experiment [7], in experiment [3], in [5] and in [6] was above 100 µM throughout.

For `Cc1cccc(C)c1NC(=O)CCCC(=O)C(C#N)c1ccc(Cl)cc1` (stereo not drawn), the TGI in experiment [1], in experiment [2], in experiment [7], in [3], in experiment [4] and in [5] was above 100 µM in each case. In experiment [6], this molecule registered a TGI above 100 µM.

Regarding `C=C[Si](C)(C)COC(=O)/C(C#N)=C/C=C/c1ccccc1`, the TGI in experiment [1], in experiment [2], in experiment [7], in experiment [3], in experiment [4] and in [5] was above 100 µM each time. The TGI in experiment [6] was above 100 µM.

Consider `CC1(C)Cc2nnsc2C2=C1C(=O)CCS2`, for which the TGI in experiment [1], in [2], in [7], in experiment [3], in experiment [4] and in experiment [5] was above 100 µM in each case. This molecule had a TGI in experiment [6] above 100 µM.

With `NCCn1cnc2nc(NC(=O)c3ccccc3)[nH]c(=O)c21`, the TGI in experiment [1], in experiment [2], in experiment [7], in experiment [3], in [5] and in experiment [6] was above 100 µM throughout.

`CCOC(=O)C1=C(C)N(NC(=O)OC)C2(N)N(NC(=O)OC)C(C)=C(C(=O)OCC)C12C#N` (stereo not drawn): the TGI in experiment [1], in [2], in [7], in experiment [3], in [4] and in experiment [5] was above 100 µM in each case.

For `O=c1oc2c(cc1-c1ccccc1)C(O)Oc1ccccc1-2` (stereo not drawn), the GI50 in experiment [1] is 10.4 µM; in [8] it was 1.62 µM; in experiment [2], 16.3 µM; in experiment [9], 18.9 µM; in experiment [7], 2.6 µM; in experiment [3] it was 5.81 µM. For the same molecule, the GI50 was 14.8 µM in experiment [4], 12.4 µM in experiment [5] and 7.94 µM in [6]. The TGI is 91.9 µM in experiment [1]; above 100 µM in experiment [8]; 83.6 µM in experiment [2]; above 100 µM in [9]; 26.8 µM in experiment [7]; 30.6 µM in [3]. For the same molecule, the TGI in [4] stood at 70.6 µM; in experiment [5], 98 µM; in experiment [6], 25 µM.
